# In patent US9029415B2, “Cooling mixtures with an enhanced cooling effect of 5-methyl-2-(propane-2-yl)cyclohexyl-N-ethyloxamate” (Symrise AG, priority 2010, dated 2015):
# Tests used:
# [1] = test system: skin (both cheeks) of test persons; experiment: In-vivo half-side cheek test of cooling intensity of O/W cream samples (20 panellists, scale 1-10, 30 minutes); parameters: species or system human; conditions: FIG. 1
# Method: The aim of the human in vivo studies was to test the effect of the cooling mixture according to the invention in O/W formulations with regard to their cooling intensity. What was to be examined here was whether the cooling effect/cooling intensity of 5-methyl-2-(propane-2-yl)cyclohexyl-N-ethyloxamate will be enhanced in the combination of active substances according to the invention. Each individual test was carried out using 20 panellists under standardized conditions in a test institute. To this end, each test person spread two defined quantities of cream samples onto both cheeks at the same time. […] Upon application of the samples, the test persons evaluated the cooling intensities on a scale of 1-10 within a period of 30 minutes (1=weak; 10=strong). The studies were carried out as double blind studies, therefore the test institute received the formulations in an encoded form. In order to ensure test standardization, the following conditions were selected: • Controlled ventilation and temperature conditions in the room of the test persons • Use of a standardized test protocol • Detailed explanation of the test protocol • Samples were given to the test persons in uniform, clear containers • Samples were labeled with a three-digit code • A sample amount of 0.3 g of cream was applied onto each cheek • Samples were covered with a lid in order to avoid drying out of the samples • Test persons were instructed not to use any makeup on the day of the test and not to use any cosmetic products at least two hours before the test • The test persons evaluated the cooling effect of the two products on a scale of 1-10 (1=weak, 10=strong) at 32 identical points in time
# The data obtained during the studies was examined with regard to any significant differences between the two samples. To this end, the data was initially examined for standard normal distribution. Provided the data met the criteria of a standard normal distribution, a pairwise t test was carried out. […] Where no normal distribution of the values was found, significance was determined via a non-parametric Wilcoxon. […]
# skin = experiment: Cooling effect of the formulation examples as perceived by the test persons; format: in vivo, human
# Text: Provided the corresponding formulations also contained trans-4-tert. butylcyclohexanol, the cooling effect was even further enhanced compared to formulations without this compound.
smiles,measurement,setting,value
"CCNC(=O)C(=O)O[C@@H]1C[C@H](C)CC[C@H]1C(C)C [MEO, (1R,2S,5R)-5-methyl-2-(propane-2-yl)cyclohexyl N ethyl oxamate]","cooling effect (cooling intensity, scale 1-10)","[1]; O/W emulsion with 1.0 % MEO, 0.3 g cream per cheek, 20 panellists",marked cooling effect
same,onset of the cooling effect,[1]; after application of the formulation onto the cheek,immediately upon application
same,duration of the cooling effect,[1]; evaluation period 30 minutes,more than 30 minutes
"CCCCCCCCC(O)CO (centres unmarked) [1,2-decanediol]","enhancement of cooling effect when 1,2-pentanediol is replaced","skin; 1,2-pentanediol replaced with 1,2-decanediol in an amount of one fifth of the pentanediol",applies analogously
"CCCCC(O)CO (centres unmarked) [1,2-hexanediol]","enhancement of cooling effect when 1,2-pentanediol is replaced","skin; 1,2-pentanediol in the formulations replaced with 1,2-hexanediol at a ratio of 5:3",comparable effects are achieved
